{"source": "patent US20010036948A1", "about": "(priority 1998, published 2001)", "key": {"[1]": {"tested_on": "T/G Human Aortic Smooth Muscle Cells", "type": "cell-based"}, "Vero cells": {"tested_on": "Vero cells", "type": "cell-based, monkey"}, "[2]": {"tested_on": "T/G HA-VSMC cells (human aortic smooth muscle cell system)", "type": "cell-based"}}, "note": "Where “and” joins values, the source holds several entries; their conditions need not be identical. Equal values may be shown once. Wherever Growth score is given: key: −: Lethal treatment, no cells left viable, all rounded, shriveled and dead; −/+: Some treated cells remain viable, about equal amount of clearly dead cells; +/−: Most cells remain viable, detectable number of dead cells; 1+: All cells appear viable, same density as when treated; 2+: Minimal proliferation, compared to control; 3+: Moderate proliferation compared to control; 4+: Maximal growth, unaffected by treatment."}
{"smiles": "NC(Cc1ccc(N(CCCl)CCCl)cc1)C(=O)O", "note": "(centres unmarked) [Melphalan, melphalan, reference compound]", "values": [{"measurement": "Growth score", "setting": "[1]", "value": "2+ and 1+ and 3+ and 4+"}]}
{"smiles": "O=C(CCNc1c2ccccc2nc2ccccc12)OCCN(CCCl)CCCl", "note": "[β-alanine, N-(acridin-9-yl), 2-[bis(2-chloroethyl)amino]ethyl ester]", "values": [{"measurement": "Effect on the increase in the number of cultured cells", "setting": "[1]", "value": "inhibited the increase in the number of cultured Human Aortic Smooth Muscle Cells in a dose-dependent manner with a relatively broad therapeutic window"}, {"measurement": "Growth score", "setting": "[1]", "value": "−/+ and 1+ and +/− and 3+ and 4+"}, {"measurement": "Effect on the increase in the number of cultured cells", "setting": "Vero cells", "value": "inhibited the increase in the number"}, {"measurement": "Effect on the increase in the number of cultured cells", "setting": "[2]", "value": "inhibited the increase in the number"}]}
